Experimental data from patent US4530932A, “4-(1H-indol-3-yl)-α-methyl-piperidine-1-ethanol derivatives” (Roussel Uclaf, priority 1982, dated 1985).
Counter-ions that a name gives are not always drawn. Like-named read-outs stand apart in the source and are kept apart here.

Assays:
[1] = test system: Rat arteries (arterial contractions, entry of calcium ions into the cells of smooth muscles); assay: In vitro anticalcic activity (inhibition of potassium-depolarized, calcium-induced contractions of isolated rat arteries); format: cell-based; conditions: dose inhibiting by 50% the contractions caused by potassium ions (100 mM), 37° C., read-out: CI50 (the source's name)
Method: Rat arteries decoupled in a spiral were attached to a tension collector and were maintained in tanks containing 2.5 ml of Krebs-sodium bicarbonate buffer (NaCl: 120.8 mM, KCl: 5.9 mM, MgCl2 : 1.2 mM, NaH2 PO4 : 1.2 mM, NaHCO3 : 15.5 mM, glucose: 12.6 mM), at 37° C. covered with a 95%-5% oxygen-carbon dioxide mixture. The preparations were depolarized with a buffered solution containing 100 mM of potassium ions (NaCl: 26.7 mM, KCl: 100 mM, MgCl2 : 1.2 mM, NaH2 PO4 : 1.2 mM, NaHCO3 : 15.5 mM, glucose 12.6 mM).
A volume of 25 μl of calcium chloride was added to the mixture in a manner to obtain a range of increasing concentrations of calcium ions from 0.1 to 3.0 mM and the contractions of the artery were measured to obtain a control. The operation with range of calcium ions was repeated every 15 minutes and the preparation was washed 4 times after each range. When a stable response was obtained, the operation with the range of calcium ions was effected in the presence of varying concentrations of test compounds until a stable response was obtained.
The arterial contractions depend on the entry of calcium ions into the cells of smooth muscles and are provoked by depolarization of smooth muscles by potassium ions and by action of noradrenaline freed by presynapthic level. By recommencing the operation with denerved arteries by the action of 6-hydroxy-dopamine, the specific action due to noradrenaline is suppressed.

[2] = test system: cardiac rhythm troubles in guinea pigs; assay: Antiarythmic action (K-strophanthine and adrenaline induced cardiac rhythm troubles); format: in vivo, guinea pig; conditions: Cavia porcellus, 1 h, oral 10 mg/kg, one hour before K-strophanthine and adrenaline perfusion, read-out: Percentage of protection (lengthening of the time of appearance of cardiac rhythm troubles as compared to controls)
Method: Male guinea pigs weighing between 450 and 500 g were tracheotomized while anesthesized by intraperitoneal administration of […] of urethane and were subjected to artifical respiration of 40 to 50 breaths of 5 ml per minute. Needles were subcutaneously implanted to register an electrocardiogram of the guinea pigs for the signal of D II derivation. The test products were orally administered and one hour later, the jugular vein of the guinea pigs were perfused with 0.5 ml per minute of a solution of 150 γ/ml of K-strophanthine and 0.5 ml per minute of a solution of 5 γ/ml of adrenaline and the number of times of the appearance of cardiac rhythm troubles was noted. The results are expressed in percentage of protection with an oral dose of 10 mg/kg of test product that is to say the percentage of lengthening of the time of appearance of cardiac rhythm troubles as compared to the controls.

[3] = test system: carotidien arterial pressure in rats; assay: Hypotensive activity (carotidien arterial pressure in anesthesized rats); format: in vivo, rat (Wistar); conditions: rat, intravenous
Method: The hypotensive activity was studied on male rats of the Wistar strain weighing about 300 g and anesthesized with 50 mg/kg of nembutal intraveinously. The test products were administered intraveinously by the jugular vein and the carotidien arterial pressure was measured before and after administration of the test compounds. The variations expressed in percentage of arterial pressure after administration with respect to the initial pressure is reported in Table IV.

mice = assay: Acute toxicity (DL0, oral); format: in vivo, mouse; parameters: unit not given here
α1 adrenergic receptors = assay: Affinity for α1 adrenergic receptors (3H prazosine displacement, rat brain); format: binding; conditions: relative to phentolamine (ARL=100×(CB/CX)), 25° C., pH 7.7
Method: After centrifugation at 30,000 g for 15 minutes at 0° to 4° C., the culot was suspended in 240 ml of buffer Tris HCl 50 mM (pH-7.7) and the suspension was centrifuged at 30,000 g for 20 minutes at 0° to 4° C. The new culot was suspended in 480 ml of buffer Krebs Tris HCl (pH of 7.7-50 mM) and 2 ml of the suspension in the presence of 3H prazosine at a concentration of […] alone and with increasing concentrations of the test compound or with non-radioactive phentolamine at a concentration of 10^-5 M to determine the non-specific fixation was incubated at 25° C. for 30 minutes.
The incubated suspensions were filtered through Whatman FG/C and the filtered were washed with 3 times with 5 ml of buffer Krebs Tris HCl-pH of 7.7 at 0° to 4° C. The radioactivity of the filters was measured by liquid scintillation and the affinity of the test compound for α1 adrenergic receptors was compared relative to phentolamine as the reference compound by the formula
CD=concentration of phentolamine inhibiting by 50% the specific fixation of 3H prazosine.
CX=concentration of test product inhibiting by 50% the specific fixation of 3H prazosine.

[4] = 1 min, 1 minute, read-out: % Variation of arterial pressure after administration, 1 minute
[5] = 5 min, 5 minutes, read-out: % Variation of arterial pressure after administration, 5 minutes
[6] = 10 min, 10 minutes, read-out: % Variation of arterial pressure after administration, 10 minutes
[7] = 0.5 h, 30 minutes, read-out: % Variation of arterial pressure after administration, 30 minutes

Row | Compound | IC50 [1] | change in vivo at 10 mg/kg [2] | change in vivo at 1 mg/kg [3, 4] | change in vivo at 1 mg/kg [3, 5] | change in vivo at 1 mg/kg [3, 6] | change in vivo at 1 mg/kg [3, 7] | DL0 (maximum dose which did not cause any deaths after 8 days) (mice) | % Arl (relative affinity for α1 adrenergic receptors) (α1 adrenergic receptors)
1 | C=CCOc1ccccc1OCC(O)CN1CCC(c2c[nH]c3ccc(OC)cc23)CC1 (stereo not drawn) [Example 32, 4-(5-methoxy-1H--indol-3-yl)-α -2-(prop-2-enyloxy)-phenoxymethyl]-piperidine-1-ethanol fumarate] | 1.9 µM | 20% | – | – | – | – | – | –
2 | C=CCOc1ccccc1OCC(O)CN1CC=C(c2c[nH]c3ccccc23)CC1 (stereo not drawn) [Example 24, 4-(1H--indol-3-yl)-α-[2-prop-2-enyloxy)-phenoxymethyl]-1,2,3,6,tetrahydropyridine-1-ethanol fumarate] | 0.7 µM | – | -10% | -16% | -11% | -17% | > 200 | –
3 | OC(COc1ccccc1)CN1CCC(c2c[nH]c3ccccc23)CC1 (stereo not drawn) [Example 3, 4-(1H--indol-3-yl)-α-[phenoxymethyl]-piperidine-1-ethanol hydrochloride] | 2.5 µM | 55% | – | – | – | – | – | –
4 | O=[N+]([O-])c1ccc(OCC(O)CN2CCC(c3c[nH]c4ccccc34)CC2)cc1 (stereo not drawn) [Example 5, 4-(1H--indol-3-yl)-α-[4-nitrophenoxymethyl]-piperidine-1-ethanol hydrochloride] | 4.5 µM | 82% | – | – | – | – | > 200 | 77%
5 | OC(COc1ccc(C(F)(F)F)cc1)CN1CCC(c2c[nH]c3ccccc23)CC1 (stereo not drawn) [Example 25, 4-(1H--indol-3-yl)-α-[4-trifluoramethylphenoxymethyl]-piperidine-1-ethanol hydrochloride] | 1.5 µM | 35% | -5% | -14% | -6% | -14% | 100 | –
6 | COc1ccc(OCC(O)CN2CCC(c3c[nH]c4ccccc34)CC2)cc1OC (stereo not drawn) [Example 27, 4-(1H--indol-3-yl)-α-[3,4-dimethoxyphenoxymethyl]-piperidine-1-ethanol hydrochloride] | – | 115% | – | – | – | – | 80 | –
7 | COc1cccc(OCC(O)CN2CCC(c3c[nH]c4ccccc34)CC2)c1 (stereo not drawn) [Example 23, 4-(1H--indol-3-yl)-α-[3-methoxyphenoxymethyl]-piperidine-1-ethanol hydrochloride] | 2.7 µM | 73% | -7% | -19% | 14% | -17% | > 200 | –
8 | C=CCOc1cccc(OCC(O)CN2CCC(c3c[nH]c4ccccc34)CC2)c1 (stereo not drawn) [Example 28, 4-(1H--indol-3-yl)-α-[3-(prop-2-enyloxy)-phenoxymethyl]-piperidine-1-ethanol hydrochloride] | 2.4 µM | 103% | -5% | -10% | -6% | -9% | > 100 | –
9 | COc1ccc(OCC(O)CN2CCC(c3c[nH]c4ccccc34)CC2)cc1 (stereo not drawn) [Example 8, 4-(1H--indol-3-yl)-α-[4-methoxyphenoxymethyl]-piperidine-1-ethanol hydrochloride] | 4.2 µM | 57% | -10% | -13% | 0% | -13% | > 200 | 222%
10 | C=CCOc1ccc(OCC(O)CN2CCC(c3c[nH]c4ccccc34)CC2)cc1 (stereo not drawn) [Example 26, 4-(1H--indol-3-yl)-α-[4-prop-2-enyloxy)-phenoxymethyl]-piperidine-1-ethanol hydrochloride] | 1.5 µM | 68% | – | – | – | – | > 200 | –
11 | C=CCOc1ccccc1OCC(O)CN1CCC(c2cn(C)c3ccccc23)CC1 (stereo not drawn) [Example 31, 4-(1-methyl-1H--indol-3-yl)-α-[2-(prop-2-enyloxy)-phenoxymethyl]-piperidine-1-ethanol fumarate] | 3 µM | 49% | – | – | – | – | – | –
12 | Nc1ccccc1OCC(O)CN1CCC(c2c[nH]c3ccccc23)CC1 (stereo not drawn) [Example 19, 4-(1H--indol-3-yl)-α-[2-amino-phenoxymethyl]-piperidine-1-ethanol fumarate] | – | 165% | – | – | – | – | > 100 | –
13 | Cc1cccc(OCC(O)CN2CCC(c3c[nH]c4ccccc34)CC2)c1 (stereo not drawn) [Example 18, 4-(1H--indol-3-yl)-α-[3-methylphenoxymethyl]-piperidine-1-ethanol hydrochloride] | 2 µM | 23% | – | – | – | – | > 100 | –
14 | COc1ccccc1OCC(O)CN1CCC(c2c[nH]c3ccccc23)CC1 (stereo not drawn) [Example 14, 4-(1H--indol-3-yl)-α-[2-methoxyphenoxymethyl]-piperidine-1-ethanol hydrochloride] | 11 µM | 83% | – | – | – | – | > 100 | –
15 | Oc1cccc(OCC(O)CN2CCC(c3c[nH]c4ccccc34)CC2)c1 (stereo not drawn) [Example 30, 4-(1H--indol-3-yl)-α-[3-hydroxyphenoxymethyl]-piperidine-1-ethanol hydrochloride] | – | 86% | – | – | – | – | > 100 | –
16 | Cc1ccc(OCC(O)CN2CCC(c3c[nH]c4ccccc34)CC2)cc1 (stereo not drawn) [Example 21, 4-(1H--indol-3-yl)-α-[4-methylphenoxymethyl]-piperidine-1-ethanol hydrochloride] | 1.8 µM | 60% | – | – | – | – | > 100 | 93%
17 | OC(COc1cccc(Cl)c1)CN1CCC(c2c[nH]c3ccccc23)CC1 (stereo not drawn) [Example 22, 4-(1H--indol-3-yl)-α-[3-chloro-phenoxymethyl]-piperidine-1-ethanol hydrochloride] | 1.8 µM | – | – | – | – | – | 80 | 70%
18 | CC(=O)Nc1ccccc1OCC(O)CN1CCC(c2c[nH]c3ccccc23)CC1 (stereo not drawn) [Example 20, 4-(1H--indol-3-yl)-α-[2-acetamidophenoxymethyl]-piperidine-1-ethanol hydrochloride] | – | – | – | – | – | – | – | 311%
19 | OC(COc1ccc(Cl)c(Cl)c1)CN1CCC(c2c[nH]c3ccccc23)CC1 (stereo not drawn) [Example 29, 4-(1H--indol-3-yl)-α-[3,4-dichlorophenoxymethyl]-piperidine-1-ethanol hydrochloride] | 2.4 µM | 53% | – | – | – | – | > 100 | –
